# Article PMC7125202, “Targeting of radioactive platinum-bisphosphonate anticancer drugs to bone of high metabolic activity” (Scientific Reports, 2020)
# Experiments:
# [1] = In vivo biodistribution of cold Pt-species, Pt quantified by ICP-MS; parameters: species or system C57Bl/6N mice; conditions: 24 h after i.v. injection, 2.5 mM Pt
# Protocol: The Pt-BP and Pt(NO3)2(en) complexes were administered intravenously in the tail vein of C57BL/6N mice (n = 5 per each platinum complex). Sterile saline solution (0.9% NaCl) was used to dissolve platinum complexes. The concentration of injected Pt-BP or Pt(NO3)2(en) solutions was 2.5 mM platinum, calculated based on the maximum tolerated dose for cisplatin of 6 mg per kg body weight of the mice[37]. The mice were euthanized with CO2 24 h after injection, after which blood (approximately 600 mg per mouse), liver, spleen, kidneys, heart, lungs, and bones (femur, humerus, tibia, and spine) were harvested. Approximately half of the tissues were prepared for inductively coupled plasma-mass spectrometry (ICP-MS) analysis by digestion in 65% (v/v) nitric acid at 75 °C for approximately three days until the tissues were digested completely. Each tissue was cut into three samples and the samples were weighed prior to digestion in nitric acid. The digested solutions were diluted with up to 6 ml of Milli-Q water to obtain 2% (v/v) nitric acid in order to measure platinum concentrations by ICP-MS (X series I, Thermo Electron Corporation). The detection limit for determining platinum concentration with ICP-MS was 1 ppb. The standard solutions were prepared from 1000 mg·1^−1 platinum ICP standard Certipur (1.70341.0100, Merck) ranging from 1 ppb to 2500 ppb. The measured isotopes for platinum were ^194Pt, ^195Pt, ^196Pt, and ^198Pt. Furthermore, scandium (^45Sc) was added as an internal standard, which was prepared with 1000 mg·1^−1 scandium standard Certipur (1.19513.0100, Merck) to correct for matrix effects and long-term fluctuations of the measurement signal. The platinum concentrations in the various tissues were calculated relative to 1 mg of the specific tissue and represented as ng Pt/mgtissue. Three replicates of Pt-BP and Pt(NO3)2(en) solutions with volumes and platinum concentrations identical to the solutions injected to the mice (200 µl and 2.5 mM platinum, respectively) were also analyzed for their platinum content using ICP-MS as control. The percentage of injected dose (%ID) of Pt-BP and Pt(NO3)2(en) in each mouse tissue 24 h after injection was calculated by dividing the total amount of platinum per tissue through the total amount of platinum detected in the control solutions[52].
# genomic DNA = experiment: Pt-DNA adducts quantification using High Resolution ICP-MS; assay type: in vivo, C57Bl/6N mice; conditions: 24 h after i.v. injection
# Description: The remaining half of the tissues from all mice were dissected and weighed for DNA extraction. DNA was isolated using DNeasy Blood & Tissue Kit (Qiagen, USA) for soft tissue and ChargeSwitch® gDNA Plant Kit (Thermofisher, USA) for bone samples. The DNA was digested with DNase I Solution (Thermofisher, USA) and filtered using 0.2 µm acrodisc GHP before analysis for Pt content using high resolution-ICP-MS (Element2, Thermo Finnigan). The detection limit for determining the platinum concentration was 2 ng/l. The standard solutions were prepared from 1000 mg·1^−1 platinum ICP standard Certipur (1.70341.0100, Merck) ranging from 5 ppt to 10 ppb. The selected isotopes for platinum were ^194Pt and ^195Pt. Furthermore, thallium (Tl) was added as an internal standard and determined at a molecular mass of 205 Da, which was prepared using a 1000 mg·1^−1 thallium standard (CGTL-1, Inorganic Ventures) to correct for matrix effects and long-term fluctuations of the analytical signal. The Pt-DNA adduct concentration is represented as percentage of Pt involved in adduct formation to the total amount of Pt accumulated in the specific tissue.
# [2] = In vivo biodistribution of radioactive Pt-species, excised tissues by gamma counting; parameters: species or system C57BL/6N mice; conditions: 11.2 MBq i.v.
# Description: (§1) The ^195mPt-BP and ^195mPt(NO3)2(en) complexes were reconstituted in sterile saline solution (0.9% NaCl) and administered intravenously in the tail vein of C57BL/6N mice (n = 5 per each platinum complex). All mice received an intravenous injection with a dose of 11.2 ± 0.4 MBq ^195mPt. Immediately after injection and 1, 3, and 7 days after injection, images were acquired with U-SPECT-II/CT(MILabs) as reported previously[54],[55]. Mice were scanned under general anesthesia (isoflurane/O2) for 15 to 60 minutes using the 1.0-mm diameter pinhole mouse high sensitivity collimator tube, followed by a CT scan (spatial resolution […], 65 kV, […]) for anatomical reference. Scans were reconstructed with MILabs reconstruction software using an ordered-subset expectation maximization algorithm, with a voxel size of 0.4 mm. SPECT/CT scans were analyzed and maximum intensity projections were created using the Inveon Research Workplace software (IRW, version 4.1). A 3D volume of interest was drawn using CT threshold to differentiate soft tissue from skeletal tissue and uptake was quantified as the percentage injected dose per gram (%ID/g), assuming a tissue density of 1 g/cm^3. The hot spot in the skeletal tissue region of interest (ROI) was chosen with the location of the edge of the ROI contour representing 75% of maximum intensity. The mice from ^195mPt(NO3)2(en) group were euthanized with CO2 after 3 days due to excessive loss of body weight, whereas mice from treated with ^195mPt-BP were sacrificed at the end of experiments. After euthanizing the animals, blood (approximately 600 mg per mouse), liver, spleen, kidneys, heart, lungs, and bones (femur, humerus, tibia, and spine) were harvested and analyzed with a gamma counter (1470 Wizard, Perkin Elmer).
# [3] = micro-SPECT/CT quantification of 195mPt biodistribution; assay type: in vivo, C57BL/6N mice
# Description: as §1
# [4] = Laser ablation ICP-MS imaging of Pt co-localization with calcium in mice tibia; assay type: in vivo; conditions: proximal tibia sections; for percentage of Pt co-localized with calcium: LA-ICP-MS
# Protocol: The experimental procedure was carried out as reported previously. The mice tibias were incubated in neutral buffered formaldehyde for 36 h. Later, tibias were dehydrated in ascending grades of 70% to 100% ethanol and embedded in poly(methyl methacrylate) (pMMA) resin, freshly prepared by mixing 600 mL of methyl methacrylate monomer (Acros Organics BVBA, Geel, Belgium), 60 ml dibutyl phthalate (Merck KGaA, Darmstadt, Germany) and 1.25 g perkadox®16 (Aldrich, Netherlands). The polymerization was followed by cutting serial horizontal sections (perpendicular to the tibia sample) of 5 µm thickness within the trabecular region of interest using an RM2155 microtome with a TC 65 blade (Leica Microsystems GmbH, Wetzlar, Germany). Microscopic images were obtained using an inverted fluorescence/bright field microscope (BZ-9000, Keyence Deutschland GmbH, Neu-Isenburg, Germany). For image recording and processing, the software BZ-II Viewer and BZ-II Analyzer were used, respectively. To calculate the percentage of platinum co-localized with calcium, the background of the image and all pixels without hard bone tissue were excluded from the calculations. A pixel is considered to be background if its calcium intensity is below 15%. The platinum concentrations of the remaining pixels were then added up and divided by the sum of the entire platinum image to yield the percentage of platinum co-localized with calcium.
# [5] = Body weight, behaviour and toxicity of mice after injection of radioactive Pt-species; assay type: in vivo, C57BL/6N mice; conditions: for body weight and behavioral changes: 11.2 ± 0.4 MBq 195mPt i.v., first 3 days p.i. for 195mPt(NO3)2(en)
# Protocol: All in vivo work was conducted in accordance with ISO standards and the principles set forth by the Revised Dutch Act on Animal Experimentation. The in vivo experiments were approved by the institutional Animal Welfare Committee of the Radboud University Medical Center (Radboudumc), Nijmegen, the Netherlands. For both the experiment, 10 male C57Bl/6N mice (Charles River), with an average weight of ~25 g and an age of approximately 6–8 weeks were housed in filter-topped cages (5 mice per cage) under non-sterile standard conditions provided with standard animal food and water ad libitum. The mice were allowed to adapt to laboratory conditions for 1 week before experimental use. The humane end point were defined as follows, body weight gain of> 20% within 10 days, no water or food intake, weight loss of >15% within 1–2 days or> 20% of normal body weight of that animal, serious circulatory or respiratory problems, behavioural changes (hyperactivity, passive, auto-mutilation), and morbidities such as impaired mobility or lethargy.
# as §1, with “The mice from ^195mPt(NO3)2(en) group were euthanized with CO2 after 3 days due to excessive loss of body weight, whereas mice from treated with ^195mPt-BP were sacrificed at the end of experiments.” left out
# zebrafish embryos = experiment: Phenotypic assessment of drug-treated zebrafish embryos; assay type: in vivo, zebrafish (Danio rerio); conditions: Pt-BP 5-100 µM, cisplatin 30 µM
# Protocol: The zebrafish (Danio rerio) strains were kept under standard conditions (28 °C in E3 buffer) until 48 hours post fertilization (hpf) as described previously. All animal experiments were conducted at larval stages before the point of independent feeding and were in agreement with the animal protection law (Tierschutzgesetz).
# 48 hpf wildtype embryos were separated into 6 groups (n = 20 embryos/group), i.e., control (untreated) and embryos treated with 5 µM, 10 µM, 50 µM, and 100 µM Pt-BP as well as 30 µM cisplatin. Both types of compounds were added externally to the medium and the embryos were incubated at 33 °C for the duration of the experiment. The embryos were assessed each day for phenotypic toxicity until 2 days post treatment (48 hpt) and imaged live in an Olympus MVX10 microscope.
# [6] = parameters: method as in PMID 29037232; conditions: cited from earlier work
# [7] = Whole-body 195mPt radioactivity in mice measured using an ionization chamber; assay type: in vivo; conditions: day 7
# Description: Figure S3. ^195mPt radioactivity in mice. Percentage of injected dose (%ID) of ^195mPt-BP and ^195mPt(NO3)2(en) in mice, measured using an ionization chamber. ** P < 0.01; ****P < 0.0001 as determined by two-way ANOVA with a Bonferroni (multiple comparisons) post-hoc test.
# Ehrlich solid carcinoma = tested on: Ehrlich solid carcinoma; parameters: method as in doi:10.1007/s10967-015-4053-1; conditions: cited from earlier work
smiles,measurement,setting,value
"NCCN.O=[N+]([O-])[O-].O=[N+]([O-])[O-].[Pt+2] [Pt(NO3)2(en), reference compound]",Pt uptake in hard tissue,[1],2.69 ± 0.26 %ID/g
same,Pt uptake in kidney,[1],3.38 ± 0.28 %ID/g
same,Pt uptake in liver,[1],1.54 ± 0.33 %ID/g
same,Pt uptake in spleen,[1],0.38 ± 0.04 %ID/g
same,Pt accumulation in hard tissue (bone),[1]; normalized for tissue weight,~ 1 ng Pt/mg tissue
same,"Pt-DNA adduct formation relative to total Pt uptake, kidney",genomic DNA,4.8%
same,"Pt-DNA adduct formation relative to total Pt uptake, spleen",genomic DNA,9.8%
"NCCN.O=[N+]([O-])[O-].O=[N+]([O-])[O-].[195Pt+2] [^195mPt(NO3)2(en), reference compound]","uptake in bones (femur, tibia, humerus)",[2]; gamma counting after 3 days,1.4 ± 0.15 %ID/g
same,uptake in kidneys,[2]; gamma counting after 3 days,3.95 ± 0.24 %ID/g
same,uptake in liver,[2]; gamma counting after 3 days,3.22 ± 0.28 %ID/g
same,uptake in lungs,[2]; gamma counting after 3 days,1.08 ± 0.16 %ID/g
same,uptake in spleen,[2]; gamma counting after 3 days,2.76 ± 0.67 %ID/g
same,hard-to-soft tissue uptake ratio,"[3]; 1 h, excluding bladder uptake",1
same,hard-to-soft tissue uptake ratio,[3]; 24 h,1.2
same,hard-to-soft tissue uptake ratio,[3]; 72 h,1.2
same,uptake in bone (hard tissue),"[3]; micro-SPECT/CT, 1 h p.i.",1.5 ± 0.1 %I.D/g
same,uptake in soft tissue,"[3]; micro-SPECT/CT, 1 h p.i.",1.43 ± 0.21 %I.D/g
same,Pt not co-localized with Ca (Pt in soft tissue of the proximal tibia),[4]; Fig. 4C,10%
same,percentage of Pt co-localized with calcium,[4],37.3%
same,co-localization of Pt with Ca relative to that of 195mPt-BP,"[4]; total amount of Pt, Fig. 4C",27%
same,body weight and behavioral changes,[5],significant body weight loss
same,weight loss,"[5]; humane end point, euthanized after 3 days",more than 20%
N.N.[Cl][Pt][Cl] [cisplatin],visual inspection of kidneys based on size and shape,zebrafish embryos,apparent shrinkage
same,rapid weight loss followed by recovery within a week,[6]; mice at maximum tolerated dose,~ 10%
same,maximum tolerated dose,[6]; mice,6 mg/kg
NCCN.NCCN.O.O.O.O=S(=O)([O-])O.[NH3+]CC1(O)P2(=O)[O][195Pt][O]P1(=O)[O][195Pt][O]2 (stereo not drawn) [^195mPt-BP],uptake in femur,[2]; gamma counting after 7 days,3.1 ± 0.37 %ID/g
same,uptake in humerus,[2]; gamma counting after 7 days,2.53 ± 0.33 %ID/g
same,uptake in kidneys,[2]; gamma counting after 7 days,0.43 ± 0.16 %ID/g
same,uptake in soft tissues except kidneys,[2]; gamma counting after 7 days,< 0.11 %ID/g
same,uptake in tibia,[2]; gamma counting after 7 days,2.86 ± 0.46 %ID/g
same,hard-to-soft tissue uptake ratio,"[3]; 1 h, excluding bladder uptake",3.3
same,hard-to-soft tissue uptake ratio,[3]; 24 h,6
same,hard-to-soft tissue uptake ratio,[3]; 72 h,6.7
same,uptake in bone (hard tissue),"[3]; micro-SPECT/CT, 1 h p.i.",1.8 ± 0.25 %I.D/g
same,uptake in soft tissue,"[3]; micro-SPECT/CT, 1 h p.i.",0.93 ± 0.27 %I.D/g
same,uptake in soft tissue,"[3]; micro-SPECT/CT, 24 h",0.18 ± 0.03 %I.D/g
same,uptake in hot spots in bone (ROI 75% of maximum intensity) compared to 195mPt(NO3)2(en),"[3]; micro-SPECT/CT, all time points",twofold increased uptake
same,uptake in bone (hard tissue),"[3]; micro-SPECT/CT, from 24 h until day 7",1.0 ± 0.12 %I.D/g
same,Pt not co-localized with Ca (Pt in soft tissue of the proximal tibia),[4]; Fig. 4C,20%
same,accumulation of Pt in bone compared to 195mPt(NO3)2(en),[4]; Fig. 4C,almost a fourfold increased accumulation
same,percentage of Pt co-localized with calcium,[4],73.5%
same,body weight and behavioral changes,[5],no behavioral or body changes were observed
same,Pt-based toxicity,[5]; over a period of 7 days,did not observe any Pt-based toxicity
same,whole-body radioactivity,[7],2 %ID
N.N.[Cl][Pt][Cl] [^195mPt-cisplatin],"inhibition of tumor growth, more effective compared to non-radioactive cisplatin",Ehrlich solid carcinoma,30%
